In patent US20230109839A1, “THERAPEUTIC AGENT FOR TAUOPATHIES” (SUMITOMO PHARMA CO., LTD., priority 2020, published 2023):

target: T1, human Nav1.1 (Homo sapiens, UniProt P35498); assay: Amplification of Nav1.1-derived voltage-gated sodium current (Nav1.1 current), automated patch clamp (Test 1); format: cell-based; details: Concentration for evaluation 1 μM; HEK293 cell line stably expressing human Nav1.1
T1 construct: host or cells: HEK293
Procedure, shortened: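 Compound-induced change in ramp-evoked sodium current peak and AUC was expressed as 100×post/pre ratio minus 100. Recordings used automated patch clamp in voltage-clamp mode on a stable human Nav1.1 HEK293 line, including only cells above 500 pA. Compounds were delivered in extracellular fluid containing 1% DMSO.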

First: CN(c1cnc2cnn(CC(=O)Nc3ccc4cnccc4n3)c2n1)C1CC1 [Example 721]
Second: Cc1cn2ccc(NC(=O)Cn3ncc4ncc(N(C)C5CCC5)nc43)cc2n1 [Example 686]
The “Nav1.1 current amplification rate (%)” value of the first is higher: 17% for the first, 13% for the second.

First: CC1CC=C(c2ccc(=O)n(CC(=O)N3CCc4c(CNC5CCOCC5)cccc43)n2)CC1 (centres unmarked) [Example 317]
Second: CC1CC=C(c2ccc(=O)n(CC(=O)N3CCc4c(N5CCOCC5)cccc43)n2)CC1 (centres unmarked) [Example 245]
The “Nav1.1 current amplification rate (%)” value of the first is lower: 41% for the first, 393% for the second.

Going from `Cc1cc(NC(=O)Cn2nc(C3=CCC(C)CC3)ccc2=O)cc2ncnn12` (centres unmarked) [Example 352] to `CC1CC=C(c2ccc(=O)n(CC(=O)Nc3ccn4ncnc4c3)n2)CC1` (centres unmarked) [Example 330], the “Nav1.1 current amplification rate (%)” value rises from 155% to 191%.

Compared with `Cc1nc2ccc(NC(=O)Cn3nc(C4=CCC(C)CC4)ccc3=O)cn2n1` (centres unmarked) [Example 347], `CC1CC=C(c2ccc(=O)n(CC(=O)Nc3ccc4ncncc4c3)n2)CC1` (centres unmarked) [Example 355] is higher in “Nav1.1 current amplification rate (%)” value: 37% for the first, 130% for the second.

Compared with `CC1CC=C(c2ccc(=O)n(CC(=O)N3CCc4c3ccnc4C3=CCN(C(=O)OC(C)(C)C)C3)n2)CC1` (centres unmarked) [Example 280], `Cc1cn(Cc2cccc3c2CCN3C(=O)Cn2nc(C3=CCC(C)CC3)ccc2=O)cn1` (centres unmarked) [Example 288] is higher in “Nav1.1 current amplification rate (%)” value: 10% for the first, 115% for the second.

First: CN(CC1(C)CC1)c1cnc2cnn(CC(=O)Nc3ccn4ncnc4c3)c2n1 [Example 639]
Second: CN(c1cnc2cnn(CC(=O)Nc3ccn4ncnc4c3)c2n1)C1CC1(C)C (centres unmarked) [Example 631]
The “Nav1.1 current amplification rate (%)” value of the first is higher: 100% for the first, 49% for the second.

First: CC(C1CCC1)N(C)c1cnc2cnn(CC(=O)Nc3ccn4ncnc4c3)c2n1 (centres unmarked) [Example 634]
Second: Cc1cc(NC(=O)Cn2ncc3ncc(N(C)C4CCC4)nc32)cc2ncnn12 [Example 687]
The “Nav1.1 current amplification rate (%)” value of the first is lower: 13% for the first, 67% for the second.

Going from `Cc1cc(NC(=O)Cn2ncc3ncc(N(C)C4CCCC4)nc32)cn2ncnc12` [Example 677] to `Cc1cc(NC(=O)Cn2ncc3ncc(N(C)C4CCCC4)nc32)cc2nccn12` [Example 684], the “Nav1.1 current amplification rate (%)” value rises from 35% to 39%.

Going from `CN(c1cnc2cnn(CC(=O)Nc3ccc4oc(C(F)F)nc4c3)c2n1)C1CCCC1` [Example 678] to `CN(c1cnc2cnn(CC(=O)Nc3ccn4ccnc4c3)c2n1)C1CCCC1` [Example 670], the “Nav1.1 current amplification rate (%)” value falls from 132% to 77%.

Compared with `O=C(Cn1nc(C2=CCCCC2)ccc1=O)N1CCc2c(N3CCOCC3)cccc21` [Example 480], `CN(c1cnc2cnn(CC(=O)N3CCc4c(C5CN(C(=O)CO)C5)cccc43)c2n1)C1CCC1` [Example 696] is higher in “Nav1.1 current amplification rate (%)” value: 110% for the first, 306% for the second.

First: O=C(Cn1ncc2cnc(-c3ccc(C(F)(F)F)s3)nc21)Nc1ccn2ncnc2c1 [Example 779]
Second: CC(C)CN(C)c1cnc2cnn(CC(=O)Nc3ccc4ncnn4c3)c2n1 [Example 661]
The “Nav1.1 current amplification rate (%)” value of the first is higher: 44% for the first, 12% for the second.

same assay, conditions: Concentration for evaluation 3 μM; HEK293 cell line stably expressing human Nav1.1

Compared with `CC1CC=C(c2ccc(=O)n(CC(=O)N3CC=C(c4ccccc4)CC3)n2)CC1` (centres unmarked) [Example 257], `CC1CC=C(c2ccc(=O)n(CC(=O)N3CCc4c(-c5cccnc5)cccc43)n2)CC1` (centres unmarked) [Example 248] is higher in “Nav1.1 current amplification rate (%)” value: 45% for the first, 392% for the second.

Going from `CC1CC=C(c2ccc(=O)n(CC(=O)N3CCc4c(C5CCN(C)C5)cccc43)n2)CC1` (centres unmarked) [Example 269] to `CC1(C)CC=C(c2ccc(=O)n(CC(=O)N3CCc4c(C5CN(C6COC6)C5)cccc43)n2)CC1` [Example 438], the “Nav1.1 current amplification rate (%)” value rises from 127% to 404%.

First: COc1ncc(-c2cccc3c2CCN3C(=O)Cn2nc(C3=CCC(C)CC3)ccc2=O)cn1 (centres unmarked) [Example 249]
Second: CN(c1cnc2cnn(CC(=O)Nc3ccc4ccccc4n3)c2n1)C1CC1 [Example 717]
The “Nav1.1 current amplification rate (%)” value of the first is higher: 584% for the first, 23% for the second.

same assay, conditions: Concentration for evaluation 10 μM; HEK293 cell line stably expressing human Nav1.1

Compared with `CC1CC=C(c2ccc(=O)n(CC(=O)N3CC=C(c4cncc(F)c4)CC3)n2)CC1` (centres unmarked) [Example 397], `CC1CC=C(c2ccc(=O)n(CC(=O)N3CC=C(c4nccc5occc45)CC3)n2)CC1` (centres unmarked) [Example 404] is lower in “Nav1.1 current amplification rate (%)” value: 273% for the first, 42% for the second.

Going from `O=C(Cn1nc(C2=CCC(F)(F)CC2)ccc1=O)N1CCN(c2cncc(F)c2)CC1` [Example 489] to `Cc1cncc(N2CCN(C(=O)Cn3nc(C4=CCC(C)(C)CC4)ccc3=O)CC2)c1` [Example 442], the “Nav1.1 current amplification rate (%)” value rises from 29% to 414%.

Compared with `COc1nc2cc(NC(=O)Cn3nc(N4CCC(C)CC4)ccc3=O)ccc2o1` [Example 99], `Cc1cc(NC(=O)Cn2nc(N3CCC(C)CC3)ccc2=O)cc2ncoc12` [Example 96] is higher in “Nav1.1 current amplification rate (%)” value: 103% for the first, 105% for the second.

Going from `CC1CC=C(c2ccc(=O)n(CC(=O)Nc3cc(F)c4ocnc4c3)n2)CC1` (centres unmarked) [Example 241] to `Cc1noc2cc(NC(=O)Cn3nc(C4=CCC(C)CC4)ccc3=O)ccc12` (centres unmarked) [Example 240], the “Nav1.1 current amplification rate (%)” value falls from 260% to 241%.

First: O=C(Cn1nc(C2=CCCC2)ccc1=O)N1CCc2c(N3CCOCC3)cccc21 [Example 481]
Second: COc1cc(=O)n(CC(=O)N2CCc3c(N4CCOCC4)cccc32)nc1C1=CCC(C(F)(F)F)CC1 (centres unmarked) [Example 476]
The “Nav1.1 current amplification rate (%)” value of the first is lower: 128% for the first, 343% for the second.

Going from `CC1CC=C(c2ccc(=O)n(CC(=O)Nc3ccn4ccnc4n3)n2)CC1` (centres unmarked) [Example 242] to `CC1CC=C(c2ccc(=O)n(CC(=O)Nc3cccc4nccn34)n2)CC1` (centres unmarked) [Example 255], the “Nav1.1 current amplification rate (%)” value falls from 97% to 32%.

Compared with `CC(C)(C)C1CCN(c2ccc(=O)n(CC(=O)Nc3ccc(C#N)cc3)n2)CC1` [Example 6], `CC1CCN(c2ccc(=O)n(CC(=O)Nc3ccc(C#N)cc3)n2)C1` (centres unmarked) [Example 19] is higher in “Nav1.1 current amplification rate (%)” value: 35% for the first, 98% for the second.

Going from `CC1CC=C(c2ccc(=O)n(CC(=O)Nc3ccnc(-c4cnn(C)c4)c3)n2)CC1` (centres unmarked) [Example 379] to `CC1CC=C(c2ccc(=O)n(CC(=O)N3CCN(Cc4ccncc4)CC3)n2)CC1` (centres unmarked) [Example 392], the “Nav1.1 current amplification rate (%)” value falls from 147% to 53%.

Going from `Cc1ccc(-c2ccc(=O)n(CC(=O)Nc3ccc4ocnc4c3)n2)cn1` [Example 452] to `N#Cc1ccc(NC(=O)Cn2nc(N3CCC4(CC4)C3)ccc2=O)cc1` [Example 25], the “Nav1.1 current amplification rate (%)” value rises from 10% to 163%.

Going from `CC1CC=C(c2ccc(=O)n(CC(=O)N3CCC(Cc4ccccc4)C3)n2)CC1` (centres unmarked) [Example 389] to `COc1ccc2c(c1)CCN2C(=O)Cn1nc(C2=CCC(C)(C)CC2)ccc1=O` [Example 430], the “Nav1.1 current amplification rate (%)” value falls from 53% to 28%.

same assay, conditions: Concentration for evaluation 50 μM; HEK293 cell line stably expressing human Nav1.1

Going from `C#CCN(C)c1cnc2cnn(CC(=O)Nc3ccc4ncnn4c3)c2n1` [Example 662] to `CN(CC(F)F)c1cnc2cnn(CC(=O)Nc3ccn4ncnc4c3)c2n1` [Example 627], the “Nav1.1 current amplification rate (%)” value rises from 47% to 60%.

Compared with `CC1CC=C(c2ccc(=O)n(CC(=O)Nc3ccc4ncccc4c3)n2)CC1` (centres unmarked) [Example 357], `CN(c1cnc2cnn(CC(=O)Nc3cc4ccccc4cn3)c2n1)C1CC1` [Example 718] is lower in “Nav1.1 current amplification rate (%)” value: 43% for the first, 34% for the second.

For `Cc1ccc(-c2ncc3cnn(CC(=O)Nc4ccn5ncnc5c4)c3n2)o1` [Example 772], the “Nav1.1 current amplification rate (%)” value was 35%.

same assay, conditions: HEK293, Concentration for evaluation 1 μM; HEK293 cell line stably expressing human Nav1.1; read-out: Nav1.1 current amplification rate (%)

First: O=C(Cn1ncc2ncc(N3CCC4(CC4)C(F)(F)C3)nc21)Nc1ccn2ccnc2c1 [Example 744]
Second: Cc1cnc(-c2cnc3cnn(CC(=O)Nc4ccn5ncnc5c4)c3n2)s1 [Example 575, 2-[6-(5-Methyl-1,3-thiazol-2-yl)-1H-pyrazolo[3,4-b]pyrazin-1-yl]-N-([1,2,4]triazolo[1,5-a]pyridin-7-yl)acetamide]
The activation at 1 µM of the first is higher: 147% for the first, 84% for the second.

Compared with `CC1CC=C(c2cnc3cnn(CC(=O)N4CCN(c5cccnc5)CC4)c3n2)CC1` (centres unmarked) [Example 740], `CN(c1cnc2cnn(CC(=O)Nc3ccc4ncncc4c3)c2n1)C1CC(C)(C)C1` [Example 758] is lower in activation at 1 µM: 91% for the first, 61% for the second.

same assay, conditions: HEK293, Concentration for evaluation 10 μM; HEK293 cell line stably expressing human Nav1.1; read-out: Nav1.1 current amplification rate (%)

Compared with `Cc1nc2cc(NC(=O)Cn3nc(N4CCCCC4)ccc3=O)ccc2o1` [Example 118], `Cc1cc(NC(=O)Cn2nc(C3=CCC(F)(F)CC3)ccc2=O)cc(C)n1` [Example 102] is higher in activation at 10 µM: 7% for the first, 8% for the second.

same assay, conditions: HEK293, concentration for evaluation 0.3 μM; HEK293 stably expressing human Nav1.1; read-out: Nav1.1 current amplification rate (%)

`CN(c1cnc2cnn(CC(=O)Nc3ccc4ncncc4c3)c2n1)C1CC2(CC2)C1` [Example 848] showed an activation at 0.3 µM of 22%.

same assay, conditions: HEK293, concentration for evaluation 1 μM; HEK293 stably expressing human Nav1.1; read-out: Nav1.1 current amplification rate (%)

First: CN(CC1CCC1)c1ncc2cnn(CC(=O)Nc3ccc(C#N)nc3)c2n1 [Example 840]
Second: Cc1cc(NC(=O)Cn2ncc3cnc(N(C)C4CC4)nc32)cc2ncnn12 [Example 836]
The activation at 1 µM of the first is higher: 164% for the first, 19% for the second.

Going from `O=C(Cn1ncc2ccc(-c3ccc(F)cc3F)nc21)Nc1ccc2ocnc2c1` [Example 884] to `CN(c1ccc2cnn(CC(=O)Nc3cnc4cccnc4c3)c2n1)C1CC1` [Example 888], the activation at 1 µM rises from 34% to 101%.

In the case of `O=C(Cn1ncc2cnc(N3CCC4(CCC4)CC3)nc21)NC1=CC2N=CN=CC2C=C1` (centres unmarked) [Example 885], the activation at 1 µM was 209%.

same assay, conditions: concentration for evaluation 1 μM; HEK293 stably expressing human Nav1.1

Going from `CC1CCN(c2ccc3cnn(CC(=O)Nc4ccn5ncnc5c4)c3n2)CC1` [Example 853] to `O=C(Cn1ncc2cnc(N3CCC4C(C3)C4(F)F)nc21)Nc1ccc2ncnn2c1` (centres unmarked) [Example 816], the “Nav1.1 current amplification rate (%)” value falls from 82% to 13%.

For `CN(CC1(C)CC1)c1ncc2cnn(CC(=O)Nc3ccc4ncnn4c3)c2n1` [Example 822], the “Nav1.1 current amplification rate (%)” value was 42%.
